The structures appear in SMILES notation. Starred links: 1 amine or outer side, 2 acyl side, 3 side chain; linkers in the order of their positions; H or OH if unused. Positions of bridges follow the written chain, without caps; N, C: chain ends. Non-standard residues stand in square brackets, D forms with d. Residues, ends and D or L forms follow the SMILES beside them. Triazole bridges read from a SMILES are 1,4-linked. *: point of attachment. βGlcNAc = CC(=O)N[C@@H]1[C@@H](O)[C@H](O)[C@@H](CO)O[C@H]1*; Abu(4-yl) = O=C([C@H](CC[*:3])N[*:1])[*:2]; Dap(N3) = [N-]=[N+]=NC[C@H](N)C(=O)O; Pra = C#CC[C@H](N)C(=O)O; Dap = NC[C@H](N)C(=O)O

A short description of series [1]: Stability of the compound in aqueous DTT solution measured after 48 hrs. It is filed as physicochemical. To be noted: buffer.
Series [2] is described as follows: Stability of the compound in aqueous DTT solution assessed as degradation half life measured for 48 hrs. It is filed as physicochemical.
For the next series, the system named is A549. Nature of the series: Anticancer activity against human A549 cells assessed as cell growth inhibition by CCK8 assay. It is filed as functional, cell-based. For orientation: Tetrazolium assays rely on reduction of a dye to a coloured formazan, in cell work by metabolically active cells.
Series [3] in a line: Ratio of test compound t1/2 to Brevinin-1BYa t1/2 for alpha chymotrypsin (unknown origin)-mediated proteolysis measured for 24 hrs. It is filed as ADME. As to conditions: human.
Series [4] in a line: Hemolytic activity in rabbit erythrocytes assessed as hemoglobin release. It is filed as ADME, cell-based, Oryctolagus cuniculus, Erythrocyte.
Series [5] has as its system Huh-7. The series can be described thus: Anticancer activity against human Huh-7 cells assessed as cell growth inhibition by CCK8 assay. It is filed as functional, cell-based.
A further series relates to alpha chymotrypsin. Nature of the series: Stability of the compound assessed as alpha chymotrypsin (unknown origin)-mediated proteolysis by measuring degradation half life measured for 24 hrs. It is filed as ADME, Homo sapiens.
Series [6] concerns LNCaP C4-2B. The series can be described thus: Anticancer activity against human LNCaP C4-2B cells assessed as cell growth inhibition by CCK8 assay. It is filed as functional, cell-based.
The nature of series [7]: Helicity of the compound in TFE aqueous solution by CD spectroscopy. As to conditions: buffer. It is filed as physicochemical.
The nature of series [8]: Helicity of the compound in TFE aqueous solution by CD spectroscopy relative to Brevinin-1BYa. It is filed as physicochemical. As to conditions: buffer.
In series [9] the test system is LNCaP C4-2B. The series can be described thus: Potency index, ratio of Brevinin-1BYa IC50 to test compound IC50 for human LNCaP C4-2B cells by CCK8 assay. It is filed as functional.
Series [10] deals with Huh-7. The series can be described thus: Potency index, ratio of Brevinin-1BYa IC50 to test compound IC50 for human Huh-7 cells by CCK8 assay. It is filed as functional.

Turning to `CC[C@H](C)[C@H](NC(=O)[C@H](CC(C)C)NC(=O)[C@H](C)NC(=O)[C@H](CO)NC(=O)[C@H](CC(C)C)NC(=O)[C@H](C)NC(=O)[C@H](C)NC(=O)[C@H](CCCCN)NC(=O)[C@H](Cc1ccccc1)NC(=O)CNC(=O)[C@@H]1CCCN1C(=O)[C@H](CCCCN)NC(=O)[C@H](CC(C)C)NC(=O)[C@H](Cc1ccccc1)NC(=O)[C@@H]1CSSC[C@H](N)C(=O)N[C@@H](CCCCN)C(=O)N[C@@H](CCCCN)C(=O)N[C@@H]([C@@H](C)O[C@@H]2O[C@H](CO)[C@@H](O)[C@H](O)[C@H]2NC(C)=O)C(=O)N[C@@H](C(C)C)C(=O)N[C@@H](CC(C)C)C(=O)N1)C(=O)N1CCC[C@H]1C(=O)N[C@@H](CC(C)C)C(=O)N[C@@H](Cc1ccccc1)C(=O)O` (H-CKKT(βGlcNAc)VLCFLKPGFKAALSALIPLF-OH; disulfide 1-7), the Stabilty result in series [1] is listed as “Unstable”. The half-life in [2] was 3.32 h; in the series with alpha chymotrypsin, 4.33 h. The IC50 turned out to be 20.9 µM in the series with A549, 23.4 µM in the series with Huh-7 [5] and 20.5 µM with LNCaP C4-2B [6]. The Ratio in series [3] is on record as 1.67. Besides, the HC50 in series [4] was > 100 µM.
On to `CC[C@H](C)[C@H](NC(=O)[C@H](CC(C)C)NC(=O)[C@H](C)NC(=O)[C@H](CO[C@@H]1O[C@H](CO)[C@@H](O)[C@H](O)[C@H]1NC(C)=O)NC(=O)[C@H](CC(C)C)NC(=O)[C@H](C)NC(=O)[C@H](C)NC(=O)[C@H](CCCCN)NC(=O)[C@H](Cc1ccccc1)NC(=O)CNC(=O)[C@@H]1CCCN1C(=O)[C@H](CCCCN)NC(=O)[C@H](CC(C)C)NC(=O)[C@H](Cc1ccccc1)NC(=O)[C@@H]1CSSC[C@H](N)C(=O)N[C@@H](CCCCN)C(=O)N[C@@H](CCCCN)C(=O)N[C@@H]([C@@H](C)O)C(=O)N[C@@H](C(C)C)C(=O)N[C@@H](CC(C)C)C(=O)N1)C(=O)N1CCC[C@H]1C(=O)N[C@@H](CC(C)C)C(=O)N[C@@H](Cc1ccccc1)C(=O)O` (H-CKKTVLCFLKPGFKAALS(βGlcNAc)ALIPLF-OH; disulfide 1-7), for which the Stabilty result in series [1] is “Unstable”. Also, the half-life in [2] was 3.31 h; in the series on alpha chymotrypsin it was 4.32 h. Moreover, the IC50 came to 32.6 µM in the series on A549, 39.6 µM in the series with Huh-7 [5] and 18.7 µM in the series with LNCaP C4-2B [6]. Also, the Ratio in series [3] stood at 1.66. Moreover, in [4], the HC50 was > 100 µM.
In the case of `CC[C@H](C)[C@H](NC(=O)[C@H](CC(C)C)NC(=O)[C@H](C)NC(=O)[C@H](CO)NC(=O)[C@H](CC(C)C)NC(=O)[C@H](C)NC(=O)[C@H](C)NC(=O)[C@H](CCCCN)NC(=O)[C@H](Cc1ccccc1)NC(=O)CNC(=O)[C@@H]1CCCN1C(=O)[C@H](CCCCN)NC(=O)[C@H](CC(C)C)NC(=O)[C@H](Cc1ccccc1)NC(=O)[C@@H]1CSSC[C@H](N)C(=O)N[C@@H](CCCCN)C(=O)N[C@@H](CCCCN)C(=O)N[C@@H]([C@@H](C)O)C(=O)N[C@@H](C(C)C)C(=O)N[C@@H](CC(C)C)C(=O)N1)C(=O)N1CCC[C@H]1C(=O)N[C@@H](CC(C)C)C(=O)N[C@@H](Cc1ccccc1)C(=O)O` (H-CKKTVLCFLKPGFKAALSALIPLF-OH; disulfide 1-7), the Stabilty result in series [1] is recorded as “Unstable”. In addition, the half-life in series [2] was 3.35 h; with alpha chymotrypsin, 1.62 h. Further, the concentration for half-maximal inhibition (IC50) in the series with A549 was 9.24 µM; with Huh-7 [5], 14.9 µM; in the series with LNCaP C4-2B [6] it was 14 µM. The 50% haemolytic concentration (HC50) in series [4] was 94.4 µM. Besides, the Activity in [7] turned out to be 22.57%.
With `CC[C@H](C)[C@H](NC(=O)[C@H](CC(C)C)NC(=O)[C@H](C)NC(=O)[C@H](CO)NC(=O)[C@H](CC(C)C)NC(=O)[C@H](C)NC(=O)[C@H](C)NC(=O)[C@H](CCCCN)NC(=O)[C@H](Cc1ccccc1)NC(=O)CNC(=O)[C@@H]1CCCN1C(=O)[C@H](CCCCN)NC(=O)[C@H](CC(C)C)NC(=O)[C@H](Cc1ccccc1)NC(=O)[C@@H]1CCSC[C@H](N)C(=O)N[C@@H](CCCCN)C(=O)N[C@@H](CCCCN)C(=O)N[C@@H]([C@@H](C)O)C(=O)N[C@@H](C(C)C)C(=O)N[C@@H](CC(C)C)C(=O)N1)C(=O)N1CCC[C@H]1C(=O)N[C@@H](CC(C)C)C(=O)N[C@@H](Cc1ccccc1)C(=O)O` (H-CKKTVL[Abu(4-yl)]FLKPGFKAALSALIPLF-OH; thioether 1-7), the Stabilty entry in series [1] was “Stable”. Further, the half-life in series [2] was > 12 h; with alpha chymotrypsin it was 2.51 h. The “fold change (FC)” value in series [8] is given as 2.7. Moreover, the IC50 in the series with A549 is 11.2 µM; in the series with Huh-7 [5], 10.8 µM; with LNCaP C4-2B [6] it was 9.23 µM. The concentration for 50% haemolysis (HC50) in series [4] came to 70.4 µM. In addition, the “Ratio IC50” value was 1.5 with LNCaP C4-2B [9] and 1.38 in the series with Huh-7 [10]. This molecule registered an Activity in [7] of 83.65%.
Consider `CC[C@H](C)[C@H](NC(=O)[C@H](CC(C)C)NC(=O)[C@H](C)NC(=O)[C@H](CO)NC(=O)[C@H](CC(C)C)NC(=O)[C@H](C)NC(=O)[C@H](C)NC(=O)[C@H](CCCCN)NC(=O)[C@H](Cc1ccccc1)NC(=O)CNC(=O)[C@@H]1CCCN1C(=O)[C@H](CCCCN)NC(=O)[C@H](CC(C)C)NC(=O)[C@H](Cc1ccccc1)NC(=O)[C@@H]1CNC(=O)C[C@H](N)C(=O)N[C@@H](CCCCN)C(=O)N[C@@H](CCCCN)C(=O)N[C@@H]([C@@H](C)O)C(=O)N[C@@H](C(C)C)C(=O)N[C@@H](CC(C)C)C(=O)N1)C(=O)N1CCC[C@H]1C(=O)N[C@@H](CC(C)C)C(=O)N[C@@H](Cc1ccccc1)C(=O)O` (H-DKKTVL[Dap]FLKPGFKAALSALIPLF-OH; lactam 1-7), for which the Stabilty entry in series [1] is listed as “Stable”. Also, the half-life was > 12 h in series [2] and 1.81 h with alpha chymotrypsin. Besides, the values for the IC50 in the series with A549, in the series on Huh-7 [5] and with LNCaP C4-2B [6] were 17.1 µM, 16.6 µM and 16.8 µM, respectively. Further, the 50% haemolytic concentration (HC50) in series [4] was > 100 µM. Besides, the Activity in [7] is 26.34%.
With `CC[C@H](C)[C@H](NC(=O)[C@H](CC(C)C)NC(=O)[C@H](C)NC(=O)[C@H](CO)NC(=O)[C@H](CC(C)C)NC(=O)[C@H](C)NC(=O)[C@H](C)NC(=O)[C@H](CCCCN)NC(=O)[C@H](Cc1ccccc1)NC(=O)CNC(=O)[C@@H]1CCCN1C(=O)[C@H](CCCCN)NC(=O)[C@H](CC(C)C)NC(=O)[C@H](Cc1ccccc1)NC(=O)[C@@H]1Cn2cc(nn2)C[C@H](N)C(=O)N[C@@H](CCCCN)C(=O)N[C@@H](CCCCN)C(=O)N[C@@H]([C@@H](C)O)C(=O)N[C@@H](C(C)C)C(=O)N[C@@H](CC(C)C)C(=O)N1)C(=O)N1CCC[C@H]1C(=O)N[C@@H](CC(C)C)C(=O)N[C@@H](Cc1ccccc1)C(=O)O` (H-[Pra]KKTVL[Dap(N3)]FLKPGFKAALSALIPLF-OH; triazole 1-7), in series [1], the Stabilty entry is “Stable”. In addition, the half-life in [2] is > 12 h; in the series with alpha chymotrypsin, 2.93 h. In addition, the IC50 came to 21.7 µM in the series on A549, 11.3 µM in the series on Huh-7 [5] and 12.6 µM with LNCaP C4-2B [6]. In series [4], the HC50 came to 70.4 µM.

One may read the half-life as the time in which the quantity being followed falls by half. Broadly, the IC50 is the concentration needed to halve the response being measured. Broadly, the HC50 is the concentration that lyses half of the red blood cells.

The values are drawn from ChEMBL document CHEMBL4732193, “Design, synthesis, and anti-tumor activities of novel Brevinin-1BYa peptidomimetics” (Bioorg Med Chem Lett, 2021).
